Key:
[1] = tested on: p38^MAPK γ- and δ-isoforms; conditions: cited from earlier work
LDL receptor expression = assay: Northern blotting of LDL receptor mRNA in HepG2 cells; assay type: cell-based, human
Protocol: 5×10^5 cells were plated on day 0. On day 2, cells were refed with fresh medium. On day. 4, cells were either left untreated (0) or treated for the indicated times with SB202190 (2.5 μM) in medium containing 0.5% FBS. Total RNA was isolated and subjected to Northern blotting to determine amounts of LDL receptor, squalene synthase (SS) genes, and actin mRNAs. Autoradiographs were quantitated densitometrically. LDL receptor mRNA levels were normalized to actin mRNA levels. In the bottom panel, results are expressed as the fold induction by SB 202190 as compared with uninduced cells (set at 1). Values obtained are the averages of three separate experiments, with the standard deviations shown.
HepG2 cells were grown as described in FIG. 1. On day 4, medium was changed to either 10% LPDS alone or 10% LPDS supplemented with 25-hydroxycholesterol (2 μg/ml) and cholesterol (10 μg/ml), and after 2 hours, cells were treated with indicated concentrations of SB202190 for an additional 4 hours. Levels of LDL receptor and SS mRNAs were determined by Northern analysis and densitometry as described previously. RNA levels were normalized by comparison with levels of actin. Values obtained from cells cultured in the absence of sterols and SB202190 were set at 1. Values shown are the average of two different experiments.
Total RNA was subjected to Northern blot analysis, and the filter was hybridized with a ^32P-labeled LDL receptor probe. Values shown are the averages of two different experiments. […] Values obtained from the control cells grown in the absence of SB202190 or PD98059 were arbitrarily set at 1.
HepG2 cells were grown as described in FIG. 1. On day 4, cells cultured for 1 h in 0.5% FBS containing different amounts of cycloheximide (1 μg/ml, 2 μg/ml, and 5 μg/ml) were then incubated with SB202190 (2.5 μM) for an additional 4 h. LDL receptor and actin mRNA levels were analyzed by Northern blotting of total RNA. Values obtained from cells with no additions were arbitrarily set at 1. […] Results shown are representative of one experiment.
In FIG. 8A, HepG2 cells were pretreated for 30 minutes with the indicated concentration of the above inhibitors and then treated with […] SB202190 for an additional 4 hours. Total RNA was subjected to Northern blotting for measurement of LDL receptor mRNA levels.
Human hepatoma cell line HepG2 and its derivative HepG2-ΔRaf-1:ER cell line that stably expresses the ΔRaf-1:ER chimera were maintained as monolayer cultures in a humidified 5% CO2 atmosphere at 37° C. in Eagle's minimum essential medium (EMEM) (Bio Whittaker, Md.) supplemented with 10% fetal bovine serum (FBS) (Life Technologies Inc.), 2 mM L-glutamine, 20 units/ml penicillin and 20 μg/ml streptomycin sulphate.
Total RNA was isolated using TRIzol, and Northern blotting was done essentially as described earlier (43, 44). Briefly, 20 μg total cellular RNA was fractionated on 1% formaldehyde agarose gel and transferred to Zeta Probe membrane by capillary blotting. RNA blots were hybridized with LDL receptor and squalene synthase specific single-stranded M13 probes labeled with [α-^32P ]dCTP. Hybridized filters were washed and exposed to Kodak X-ray film. The relative intensities of specific bands were determined densitometrically within the linear range of the film on a model 300A laser densitometer (Molecular Dyanamics, Calif.) with Image Quant software. LDL receptor mRNA was normalized to squalene synthase (SS) (included in this study) or to α-actin (data not shown) mRNA level, and data for each point were plotted as the percentage of LDL receptor mRNA as compared to controls. […]

Structure (SMILES): Oc1ccc(-c2nc(-c3ccc(F)cc3)c(-c3ccncc3)[nH]2)cc1 [SB202190, 4-(4-Fluorophenyl)-2-(4-hydroxyphenyl)-5-(4-pyridyl) 1H-imidazole]
- inhibition of p38MAPK γ- and δ-isoforms [1]: insensitive
- effect on homologues p38MAPK γ (SAPK3) and SAPK4 ([1]; even at higher concentrations (100 μM)): without effect
- LDL receptor expression in the presence of sterols (LDL receptor expression; HepG2, 10% LPDS with 25-hydroxycholesterol (2 μg/ml) and cholesterol (10 μg/ml), SB202190 4 hours): slight increase in the suppressed levels of LDL receptor
- most effective concentration for LDL receptor induction (LDL receptor expression; HepG2 cells): 2.5 µM
- time after which plateau of LDL receptor expression was reached (LDL receptor expression; HepG2 cells, SB202190 2.5 μM): 8 h
- time at which a significant increase in LDL receptor expression was apparent (LDL receptor expression; HepG2 cells, SB202190 2.5 μM): 4 h
- induction of LDL receptor expression (LDL receptor expression; HepG2 cells, SB202190 alone): 6-8 fold
- induction of LDL receptor expression (Northern blotting) (LDL receptor expression; HepG2 cells, inhibitor alone, 0.5% FBS): induces LDL receptor expression in a time-dependent manner
